Test results: ChEMBL document CHEMBL5614421, “Structure-activity relationship study of Pseudellone C as anti-glioma agents by targeting TNF/TNFR signaling pathway” (Eur J Med Chem, 2024)

Assays:
LN-229 [1] = assay: Antiproliferative activity against human LN-229 cells assessed as inhibition of cell growth incubated for 68 hrs by CCK-8 assay; assay type: functional, cell-based; details: LN-229, 68 h
U-87 MG [2] = assay: Antiproliferative activity against human U-87 MG cells assessed as inhibition of cell growth incubated for 68 hrs by CCK-8 assay; assay type: functional, cell-based, U-87MG ATCC
U-87 MG [3] = assay: Induction of apoptosis in human U-87 MG cells assessed as viable cells at 5 uM incubated for 24 hrs by Annexin V-APC/7-AAD staining based flow cytometric analysis (reference value: 85 %); assay type: functional, U-87MG ATCC; details: read-out: Activity
U-87 MG [4] = assay: Induction of apoptosis in human U-87 MG cells assessed as late apoptotic cells at 5 uM incubated for 24 hrs by Annexin V-APC/7-AAD staining based flow cytometric analysis (reference value: 7.7 %); assay type: functional, U-87MG ATCC
U-87 MG [5] = assay: Induction of apoptosis in human U-87 MG cells assessed as early apoptotic cells at 5 uM incubated for 24 hrs by Annexin V-APC/7-AAD staining based flow cytometric analysis (reference value: 3.44 %); assay type: functional, U-87MG ATCC
U-87 MG [6] = assay: Induction of apoptosis in human U-87 MG cells assessed as necrotic cells at 5 uM incubated for 24 hrs by Annexin V-APC/7-AAD staining based flow cytometric analysis (reference value: 3.85 %); assay type: functional, U-87MG ATCC
LN-229 [7] = assay: Induction of apoptosis in human LN-229 cells assessed as late apoptotic cells at 5 uM incubated for 24 hrs by Annexin V-APC/7-AAD staining based flow cytometric analysis (reference value: 4.86 %); assay type: functional
LN-229 [8] = assay: Induction of apoptosis in human LN-229 cells assessed as early apoptotic cells at 5 uM incubated for 24 hrs by Annexin V-APC/7-AAD staining based flow cytometric analysis (reference value: 0.91 %); assay type: functional
LN-229 [9] = assay: Induction of apoptosis in human LN-229 cells assessed as viable cells at 5 uM incubated for 24 hrs by Annexin V-APC/7-AAD staining based flow cytometric analysis (reference value: 92.3 %); assay type: functional; details: read-out: Activity
LN-229 [10] = assay: Induction of apoptosis in human LN-229 cells assessed as necrotic cells at 5 uM incubated for 24 hrs by Annexin V-APC/7-AAD staining based flow cytometric analysis (reference value: 1.95 %); assay type: functional

SMILES	IC50 (LN-229 [1]) [µM]	IC50 (U-87 MG [2]) [µM]	further results
CCCCCCCCCCCCNC(=O)[C@H](Cc1c[nH]c2ccccc12)NC(=O)C(C)(c1c[nH]c2ccccc12)c1c[nH]c2ccccc12	10.8	12	–
CCCCCCCCCOC(=O)[C@H](Cc1c[nH]c2ccccc12)NC(=O)C(C)(c1c[nH]c2ccccc12)c1c[nH]c2ccccc12	12.6	12.3	–
FC(F)(F)c1nnc2c(Sc3ccccc3)nc3ccc(Cl)cc3n12	–	–	viability at 5 µM (U-87 MG [3]): 82.7%; Activity (U-87 MG [4]): 5.1%; Activity (U-87 MG [5]): 10%; Activity (U-87 MG [6]): 2.24%; Activity (LN-229 [7]): 8.42%; Activity (LN-229 [8]): 14.6%; viability at 5 µM (LN-229 [9]): 76.1%; Activity (LN-229 [10]): 0.97%
CC(C(=O)N[C@@H](Cc1c[nH]c2ccccc12)C(=O)O)(c1c[nH]c2ccccc12)c1c[nH]c2ccccc12	> 50	> 50	–
CNC(=O)[C@H](Cc1c[nH]c2ccccc12)NC(=O)C(C)(c1c[nH]c2ccccc12)c1c[nH]c2ccccc12	23.2	46.3	–
CC(C(=O)N[C@@H](Cc1c[nH]c2ccccc12)C(=O)NCc1ccco1)(c1c[nH]c2ccccc12)c1c[nH]c2ccccc12	17.9	46.1	–
CC(C)OC(=O)[C@H](Cc1c[nH]c2ccccc12)NC(=O)C(C)(c1c[nH]c2ccccc12)c1c[nH]c2ccccc12	> 50	23.5	–
CCCCCCCCCCNC(=O)[C@H](Cc1c[nH]c2ccccc12)NC(=O)C(C)(c1c[nH]c2ccccc12)c1c[nH]c2ccccc12	6.07	7.23	–
COC(=O)[C@H](Cc1c[nH]c2ccccc12)NC(=O)C(C)(c1c[nH]c2c(Br)cccc12)c1c[nH]c2c(Br)cccc12	8.71	7.34	–
CCCCCCCCCCCCOC(=O)[C@H](Cc1c[nH]c2ccccc12)NC(=O)C(C)(c1c[nH]c2ccccc12)c1c[nH]c2ccccc12	> 50	54.9	–
CCCCCCCCNC(=O)[C@H](Cc1c[nH]c2ccccc12)NC(=O)C(C)(c1c[nH]c2ccccc12)c1c[nH]c2ccccc12	16.1	10.7	–
COC(=O)[C@H](Cc1c[nH]c2ccccc12)NC(=O)C(C)(c1c[nH]c2c(F)cccc12)c1c[nH]c2c(F)cccc12	5.52	15	–
CCCCCCCCCNC(=O)[C@H](Cc1c[nH]c2ccccc12)NC(=O)C(C)(c1c[nH]c2ccccc12)c1c[nH]c2ccccc12	7.17	9.68	–
CCCCCCCNC(=O)C(C)(c1c[nH]c2ccccc12)c1c[nH]c2ccccc12	> 50	> 50	–
COC(=O)[C@H](Cc1c[nH]c2ccccc12)NC(=O)C(C)(c1c[nH]c2cc(Br)ccc12)c1c[nH]c2cc(Br)ccc12	6.62	4.81	–
CCCCCCNC(=O)[C@H](Cc1c[nH]c2ccccc12)NC(=O)C(C)(c1c[nH]c2ccccc12)c1c[nH]c2ccccc12	25.5	16	–
CC(C(=O)O)(c1c[nH]c2ccccc12)c1c[nH]c2ccccc12	> 50	> 50	–
Cc1ccc(CNC(=O)C(C)(c2c[nH]c3ccccc23)c2c[nH]c3ccccc23)cc1	> 50	> 50	–
CC(C)CCNC(=O)[C@H](Cc1c[nH]c2ccccc12)NC(=O)C(C)(c1c[nH]c2ccccc12)c1c[nH]c2ccccc12	12.7	16.9	–
CC(C(=O)N[C@@H](Cc1c[nH]c2ccccc12)C(=O)NC1CC1)(c1c[nH]c2ccccc12)c1c[nH]c2ccccc12	> 50	> 50	–
CC(C(=O)N[C@@H](Cc1c[nH]c2ccccc12)C(=O)OCC1CCOCC1)(c1c[nH]c2ccccc12)c1c[nH]c2ccccc12	> 50	29.2	–
Cn1nnc2c(C(N)=O)ncn2c1=O [TEMOZOLOMIDE]	> 500	113	–
CCCCCCOC(=O)[C@H](Cc1c[nH]c2ccccc12)NC(=O)C(C)(c1c[nH]c2ccccc12)c1c[nH]c2ccccc12	12.5	7.54	–

SMILES	IC50 (LN-229 [1]) [µM]	IC50 (U-87 MG [2]) [µM]	further results
CC(C(=O)N[C@@H](Cc1c[nH]c2ccccc12)C(=O)NC[C@H]1CCCO1)(c1c[nH]c2ccccc12)c1c[nH]c2ccccc12	21.3	> 50	–
COC(=O)[C@H](Cc1c[nH]c2ccccc12)NC(=O)C(C)(c1cn(C)c2ccccc12)c1cn(C)c2ccccc12	> 50	59.3	–
CCCCCNC(=O)[C@H](Cc1c[nH]c2ccccc12)NC(=O)C(C)(c1c[nH]c2ccccc12)c1c[nH]c2ccccc12	18.8	19.4	–
CNC(=O)[C@@H](NC(=O)C(C)(c1c[nH]c2ccccc12)c1c[nH]c2ccccc12)C(=O)c1c[nH]c2ccccc12	> 100	168	–
CCCCCCNC(=O)C(C)(c1c[nH]c2ccccc12)c1c[nH]c2ccccc12	> 50	> 50	–
CC(C(=O)N[C@@H](Cc1c[nH]c2ccccc12)C(=O)NCC1CC1)(c1c[nH]c2ccccc12)c1c[nH]c2ccccc12	> 50	> 50	–
COC(=O)[C@H](Cc1c[nH]c2ccccc12)NC(=O)C(C)(c1c[nH]c2ccc(C(F)(F)F)cc12)c1c[nH]c2ccc(C(F)(F)F)cc12	5.52	7.74	–
COC(=O)[C@H](Cc1c[nH]c2ccccc12)NC(=O)C(C)(c1c[nH]c2ccccc12)c1c[nH]c2ccccc12	36.9	17	–
CC(C(=O)N[C@@H](Cc1c[nH]c2ccccc12)C(=O)NC[C@@H]1CCCO1)(c1c[nH]c2ccccc12)c1c[nH]c2ccccc12	23.5	> 50	–
CC(C)CCCOC(=O)[C@H](Cc1c[nH]c2ccccc12)NC(=O)C(C)(c1c[nH]c2ccccc12)c1c[nH]c2ccccc12	12.2	8.3	–
CC(C(=O)N[C@@H](Cc1c[nH]c2ccccc12)C(=O)NCC1CCOCC1)(c1c[nH]c2ccccc12)c1c[nH]c2ccccc12	> 50	> 50	–
CCCCCCCCCCCCCCNC(=O)[C@H](Cc1c[nH]c2ccccc12)NC(=O)C(C)(c1c[nH]c2ccccc12)c1c[nH]c2ccccc12	> 50	> 50	–
CC(C)CCOC(=O)[C@H](Cc1c[nH]c2ccccc12)NC(=O)C(C)(c1c[nH]c2ccccc12)c1c[nH]c2ccccc12	20.4	17.3	–
CCCCOC(=O)[C@H](Cc1c[nH]c2ccccc12)NC(=O)C(C)(c1c[nH]c2ccccc12)c1c[nH]c2ccccc12	20.2	21.7	–
Cc1ccc(CNC(=O)[C@H](Cc2c[nH]c3ccccc23)NC(=O)C(C)(c2c[nH]c3ccccc23)c2c[nH]c3ccccc23)cc1	> 50	41.3	–
CCCCCCCOC(=O)[C@H](Cc1c[nH]c2ccccc12)NC(=O)C(C)(c1c[nH]c2ccccc12)c1c[nH]c2ccccc12	10.5	10.7	–
COCCCNC(=O)[C@H](Cc1c[nH]c2ccccc12)NC(=O)C(C)(c1c[nH]c2ccccc12)c1c[nH]c2ccccc12	19.4	> 50	–
COc1ccc(CNC(=O)C(C)(c2c[nH]c3ccccc23)c2c[nH]c3ccccc23)cc1	> 50	> 50	–
COC(=O)[C@H](Cc1c[nH]c2ccccc12)NC(=O)C(C)(c1c[nH]c2cccc(F)c12)c1c[nH]c2cccc(F)c12	10.8	22.1	–
C#CCNC(=O)[C@H](Cc1c[nH]c2ccccc12)NC(=O)C(C)(c1c[nH]c2ccccc12)c1c[nH]c2ccccc12	17.4	36.4	–
CCCCCCCCCCOC(=O)[C@H](Cc1c[nH]c2ccccc12)NC(=O)C(C)(c1c[nH]c2ccccc12)c1c[nH]c2ccccc12	13.1	19.9	–
CC(C)CNC(=O)[C@H](Cc1c[nH]c2ccccc12)NC(=O)C(C)(c1c[nH]c2ccccc12)c1c[nH]c2ccccc12	> 50	> 50	–
